Tests used:
[1] = Light fastness of magenta ink jet prints on stabilizer-treated Konica QP paper, 100% print density (Example 5); conditions: HP DeskJet 970 Cxi, stabilizer 650-700 mg/m^2 on Konica QP paper, office fluorescent lighting, None = 25.73
Method: (§1) A resin-coated paper impregnated with inorganic adsorbent particles (Konica QP Photoglossy ink jet paper, Konica Corp.) is purchased. On the ink-receiving layer, a 0.8 wt % methanol solution of the instant compounds is applied in an amount to achieve 650-700 mg/m^2. The paper is allowed to dry under ambient temperature and pressure for 24 hours.
Separately, test patterns (magenta) are printed on the treated sheets using a Hewlett Packard DeskJet 970 Cxi printer at 100% print density. The obtained prints are left to dry at ambient temperature and pressure for 24 hours.
(§2) Color densities and CIEL*a*b coordinates before and after exposure are measured using X-Rite 938 Spectrodensitometer. Exposures are carried out using normal office fluorescent lighting. The change in color is given by Delta E (DE) which is calculated by: DE=[(DL*)^2+(Da*)^2+(Db*)^2]^1/2

[2] = Light fastness of cyan, magenta and yellow ink jet prints on stabilizer-treated Konica QP paper, 50% print density (Example 6); conditions: HP DeskJet 970 Cxi, stabilizer 650-700 mg/m^2, office fluorescent lighting; for DE for magenta after 4 weeks: None = 20.16; for DE for yellow after 4 weeks: None = 4.68
Method: as §2
as §1, with “hours. Separately, test patterns (cyan, magenta and yellow) are printed on the treated sheets using a Hewlett Packard DeskJet 970 Cxi printer at 50% print density. The obtained prints are left to dry at ambient temperature and pressure for 24 hours.” for “hours.”
Color densities and CIEL*a*b coordinates before and after exposure are measured using X-Rite 938 Spectrodensitometer. Exposures are carried out using normal office fluorescent lighting.

SMILES | DE for magenta after 4 weeks [1] | DE for magenta after 4 weeks [2] | DE for yellow after 4 weeks [2] | DE for cyan after 4 weeks ([2]; cyan, None = 7.29)
CC(C)(O)CON1C(C)(C)CC(O)CC1(C)C [Instant Example 1] | 18.39 | 17.82 | 1.81 | 
CC(C)(O)CON1C(C)(C)CC(O)CC1(C)C [Instant Example 2] | 20.89 | 16.71 | 2.48 | 6.64

— patent US20060262149A1, “Ink jet ink and recording material” (priority 2005, published 2006)
